Source: publication PMC6590375 (Journal of Clinical Pharmacology, 2019)
Where two headings read alike, the source gives them in different places.

Key:
[1] = format: in vivo, human
[2] = format: in vivo, human; conditions: for AUCinf central value, higher than in subjects with normal renal function: regression analyses
[3] = human, plasma, oral
[4] = cited from earlier work
[5] = single 15 mg dose, all subjects
[6] = mild renal impairment (N = 6), single 15-mg extended-release dose, fasting
[7] = normal renal function (N = 6), single 15-mg extended-release dose, fasting
[8] = severe renal impairment (N = 6), single 15-mg extended-release dose, fasting

CL renal ([2]; both, human, urine and plasma, oral, 15 mg): 32.7 mL/min | fe (fraction of dose excreted unchanged in urine), arithmetic mean ± SD [2, 6]: 7.03 ± 3.05% | fe (fraction of dose excreted unchanged in urine), geometric mean [2, 6]: 6.51% | CLR (renal clearance), arithmetic mean ± SD [2, 7]: 5.64 ± 2.13 L/h | fe (fraction of dose excreted unchanged in urine), arithmetic mean ± SD [2, 7]: 9.91 ± 4.05% | fe (fraction of dose excreted unchanged in urine), geometric mean [2, 7]: 9.24% | AUCinf central value, higher than in subjects with normal renal function ([2]; mild renal impairment): 18% | AUCinf central value, higher than in subjects with normal renal function ([2]; moderate renal impairment): 33% | AUCinf central value, higher than in subjects with normal renal function ([2]; severe renal impairment): 44% | fe (fraction of dose excreted unchanged in urine), arithmetic mean ± SD [2, 8]: 2.48 ± 1.62% | fe (fraction of dose excreted unchanged in urine), geometric mean [2, 8]: 2.10% | CL renal [3]: ~400 mL/min
SMILES: CC[C@@H]1CN(C(=O)NCC(F)(F)F)C[C@@H]1c1cnc2cnc3[nH]ccc3n12 [Upadacitinib]
Adverse events ([1]; one subject in the mild renal impairment group, mild, reasonable possibility of being related to study drug, no other adverse events reported): diarrhea and upper respiratory infection | Physical exam, vital signs, electrocardiogram and laboratory findings [1, 5]: no clinically significant physical exam findings, vital sign measurements, electrocardiogram abnormalities, or laboratory test abnormalities | Tolerability [1, 5]: well tolerated | Immediate-release dose eliminated in urine as unchanged upadacitinib ([4]; immediate-release formulation): Approximately 20% | Dose proportionality of plasma exposures ([4]; over the range of immediate-release or extended-release doses evaluated in clinical studies): approximately dose‐proportional
